Data set [1] is described as follows: ASSAY (IV) determination of solubility. The format is physicochemical. The method, then: Assay (IV)—Determination of Solubility
The polypeptide was dissolved in water at −500 nmol/ml and mixed 1:1 with a series of buffers (100 mM glycylglycine pH 3.0, 100 mM glycylglycine pH 4.0, 100 mM glycylglycine pH 5.0, 100 mM bistrispropane pH 6.0, 100 mM bistrispropane pH 6.5, 100 mM bistrispropane pH 7.0, 100 mM bistrispropane pH 7.5, 100 mM bistrispropane pH 8.0). After 18 hours at room temperature the samples were centrifuged and the polypeptide concentration determined by UPLC.

The target in data set [2] is T1, rat calcitonin receptor (Rattus norvegicus, UniProt P32214).
T1 construct: expressed in transfected cells; host or cells: BHK tk'ts 13 (transient, FuGENE 6), membranes
T1 sequence (P32214 25-479 isoform P32214-2 limits assumed): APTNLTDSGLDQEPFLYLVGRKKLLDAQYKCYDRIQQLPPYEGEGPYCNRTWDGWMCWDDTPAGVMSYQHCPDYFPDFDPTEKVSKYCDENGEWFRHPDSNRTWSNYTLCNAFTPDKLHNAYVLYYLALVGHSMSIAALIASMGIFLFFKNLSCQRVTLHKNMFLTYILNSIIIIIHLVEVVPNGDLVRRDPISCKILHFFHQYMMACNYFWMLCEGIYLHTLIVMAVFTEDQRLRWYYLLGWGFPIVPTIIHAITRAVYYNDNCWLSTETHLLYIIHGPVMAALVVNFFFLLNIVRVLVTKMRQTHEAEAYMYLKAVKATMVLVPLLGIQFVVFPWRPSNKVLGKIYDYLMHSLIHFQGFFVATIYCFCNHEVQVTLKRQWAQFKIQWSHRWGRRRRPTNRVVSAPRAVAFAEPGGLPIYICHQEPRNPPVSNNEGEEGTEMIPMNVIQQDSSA
Kind of data set: ASSAY (VIII) binding to the rat calcitonin receptor. Particulars: Table 7, read-out: rCTR bind IC50. How it is done:
Assay (VIII)—Determination of Binding to the Rat Calcitonin Receptor
The BHK tk′ts 13 cells were transiently transfected with rat calcitonin receptor using FuGENE® 6 (Roche), according to the manufacturer's recommendations. Cells were grown in DMEM with 10% FBS and 1% Pen/Strep. Approximately 48 hours after transfection, the cells were harvested and membranes were prepared.

Structures are written as SMILES. Like-named read-outs stand apart in the source and are kept apart here.

For the compound `CC[C@H](C)[C@H](NC(=O)[C@H](C)NC(=O)CNC(=O)[C@H](Cc1ccccc1)NC(=O)[C@H](CC(N)=O)NC(=O)[C@@H]1CCCN1C(=O)[C@H](CO)NC(=O)[C@H](CO)NC(=O)[C@H](Cc1c[nH]cn1)NC(=O)[C@H](CCCNC(=N)N)NC(=O)[C@H](CC(C)C)NC(=O)[C@H](Cc1ccccc1)NC(=O)[C@H](CC(=O)O)NC(=O)[C@H](C)NC(=O)[C@H](CC(C)C)NC(=O)[C@H](CCCNC(=N)N)NC(=O)[C@H](CCC(N)=O)NC(=O)[C@@H](NC(=O)[C@H](C)NC(=O)[C@@H]1CSSC[C@H](NC(=O)[C@@H](N)CCCCN)C(=O)N[C@@H](CC(N)=O)C(=O)N[C@@H]([C@@H](C)O)C(=O)N[C@@H](C)C(=O)N[C@@H]([C@@H](C)O)C(=O)N1)[C@@H](C)O)C(=O)N1CCC[C@H]1C(=O)N[C@@H](CO)C(=O)N[C@@H](CO)C(=O)N[C@H](C(=O)N[C@@H](CC(N)=O)C(=O)N[C@H](C(=O)NCC(=O)N[C@@H](CO)C(=O)N[C@@H](CCCNC(=N)N)C(=O)N[C@H](C(=O)N[C@@H](Cc1ccc(O)cc1)C(N)=O)[C@@H](C)O)C(C)C)[C@@H](C)O` [Example 132], the solubility at 18 h in data set [1] (bistrispropane buffer, pH 6.5, read-out: Solubility pH 6.5 Concentration) was no less than 200 µM; in data set [1] (bistrispropane buffer, pH 7.5, read-out: Solubility pH 7.5 Concentration), no less than 200 µM; in data set [1] (bistrispropane buffer, pH 6.0, read-out: Solubility pH 6.0 Concentration), no less than 200 µM; in data set [1] (bistrispropane buffer, pH 7.0, read-out: Solubility pH 7.0 Concentration), no less than 200 µM; in data set [1] (bistrispropane buffer, pH 8.0, read-out: Solubility pH 8.0 Concentration), no less than 200 µM; in data set [1] (glycylglycine buffer, pH 3.0, read-out: Solubility pH 3.0 Concentration), no less than 200 µM. For the same compound, the solubility at 18 h in data set [1] (glycylglycine buffer, pH 4.0, read-out: Solubility pH 4.0 Concentration) was no less than 200 µM; in data set [1] (glycylglycine buffer, pH 5.0, read-out: Solubility pH 5.0 Concentration), no less than 200 µM. The IC50 – broadly, the point on the concentration scale where inhibition reaches its midpoint – in data set [2] was 30.9 nM.

(Values after patent US9023789B2, “Amylin analogs and pharmaceutical compositions thereof” (Novo Nordisk A/S, priority 2012, dated 2015).)
